Test results reported in article PMC8877094, “Antiparasitic Ovalicin Derivatives from Pseudallescheria boydii, a Mutualistic Fungus of French Guiana Termites” (Molecules, 2022).
Where two headings read alike, the source gives them in different places.

Assays:
Format in all cases: cell-based
[1] = tested on: Plasmodium falciparum FcB1/Colombia strain; assay: In vitro growth inhibition of chloroquine-resistant P. falciparum ([3H]-hypoxanthine incorporation); conditions: FCB1, Erythrocyte, 48 h
Procedure: The FcB1/Colombian strain of Plasmodium falciparum was maintained in vitro in human erythrocytes in an RPMI 1640 reaction mixture supplemented with 8% (v/v) heat-inactivated human serum at 37 °C under an atmosphere of 3% CO2, 6% O2, and 91% N2. The chloroquine-resistant strain FcB1/Colombia of Plasmodium falciparum was obtained from the National Museum Natural History collection, Paris, France (n°MNHN-CEU-224-PfFCB1). Parasites were maintained in vitro on human A+ erythrocytes in RPMI 1640 medium supplemented by 8% (v/v) heat-inactivated human serum at 37 °C under an atmosphere of 3% CO2, 6% O2, and 91% N2. Human red blood cells and serum were provided by the Etablissement Français du Sang, Ile de France (EFS, Paris, France) under the C-CPSL-UNT approval n°13/EFS/126. In vitro drug susceptibility assays were measured by [^3H]-hypoxanthine incorporation as described previously. Drug solutions were prepared in DMSO at a 10 mM concentration. Compounds were serially diluted 2-fold with 100 μL culture medium in 96-well plates. Asynchronous parasite cultures (100 μL, 1% parasitemia and 1% final hematocrit) were then added to each well and incubated for 24 h at 37 °C prior to the addition of 0.5 μCi of [^3H]-hypoxanthine (GE Healthcare, Tremblay-en-France, France, 1 to 5 Ci·mmol/mL) per well. After a further incubation of 24 h, plates were frozen and thawed. Cell lysates were then collected onto fiberglass filters and counted in a liquid scintillation spectrometer. The growth inhibition for each drug concentration was determined by comparison of the radioactivity incorporated in the treated culture with that in the control culture maintained on the same plate. The concentration causing 50% growth inhibition (IC50) was obtained from the drug concentration–response curve, and the results are expressed as the mean values ± standard deviations determined from several independent experiments.

[2] = tested on: Human umbilical vein endothelial cells (HUVECs); assay: Cytotoxic assay on HUVECs (CellTiter-Blue); conditions: HUVEC, read-out: HUVECs (IC50 µM)
Procedure: Human umbilical vein endothelial cells (HUVECs) were obtained from Clonetics (Lonza; Walkersville, MD, USA) and cultured according to the supplier’s instructions. Briefly, HUVECs from three to six passages were subcultured to confluence onto 0.2% gelatin-coated tissue culture flasks in endothelial cell growth medium (EGM2) containing growth factors and 2% FCS. All cell lines were maintained at 37 °C in a humidified atmosphere containing 5% CO2. Cell viability was assessed using Promega (Promega France, Charbonnière-les-Bains, France) CellTiter-BlueTM reagent according to the manufacturer’s instructions. Cells were seeded in 96-well plates (5 × 10^3 cells per well) containing […] growth medium. After 24 h of culture, the cells were supplemented with […] of test compound dissolved in DMSO (<0.1% in each preparation). After incubation for 72 h, […] resazurin was added for 2 h before recording fluorescence (λex = 560 nm, λem = 590 nm) using a Victor microtiter plate fluorimeter (PerkinElmer France, Villebon-sur-Yvette, France). IC50 values correspond to the concentration of test compound that elicited a 50% decrease in fluorescence for drug-treated cells relative to untreated cells. Experiments were performed in triplicate.

[3] = tested on: Trypanosoma brucei brucei strain 93 bloodstream forms; assay: In vitro inhibition of T. brucei brucei growth (AlamarBlue/resazurin); conditions: bloodstream forms strain 93, 72 h incubation + 4 h resazurin, mean ± SD of three independent experiments
Procedure: Bloodstream forms of Trypanosoma brucei brucei strain 93 were cultured in HMI9 medium supplemented with 10% FCS at 37 °C under an atmosphere of 5% CO2. In all experiments, log-phage cell cultures were harvested by centrifugation at 3000× g and immediately used. Drug assays were based on the conversion of a redox-sensitive dye (resazurin) to a fluorescent product by viable cells and were performed according to the manufacturer recommendations (AlamarBlue® Assay, Invitrogen Corporation, Carlsbad, CA, USA). Drug stock solutions were prepared in pure DMSO. […] After a 72 h incubation, resazurin solution was added to each well at with a final concentration of 45 μM. Fluorescence was measured at 530 nm excitation and 590 nm emission wavelengths after a further 4 h incubation. The percentage of inhibition of the parasite growth rate was calculated by comparing the fluorescence of parasites maintained in the presence of drug with that in the absence of drug. DMSO was used as control. […] IC50s were determined from the dose–response curves with drug concentrations ranging from 100 μM to 50 nM. The IC50 value is the mean ± the standard deviation of three independent experiments.

[4] = cell viability, 72 h incubation, CellTiter-Blue, triplicate
[5] = chloroquine-resistant FcB1/Colombia strain, human erythrocytes, 24 h + 24 h with [3H]-hypoxanthine, mean ± SD, read-out: P. falciparum (IC50 µM)

Compound | IC50 ([1]; read-out: P. falciparum (IC50 µM), chloroquine-resistant FcB1/Colombia strain, human erythrocytes, 24 h + 24 h with [3H]-hypoxanthine, mean ± SD) [µM] | IC50 [2, 4] [µM] | IC50 [1, 5] [µM] | IC50 ([3]; 72 h) [µM] | IC50 ([2]; 72 h) [µM] | IC50 [3] [µM]
CO[C@@H]1C(=O)CC[C@]2(CO2)[C@@]1(O)[C@@]1(C)O[C@@H]1CC=C(C)C [Compound 1, Ovalicin] | < 20.6 | 13 ± 2 |  |  |  | 
CCCCC/C=C\C/C=C\CCCCCCCC(=O)OC[C@@]1(O)CCC(=O)[C@@H](OC)[C@]1(O)[C@@]1(C)O[C@@H]1CC=C(C)C [Compound 2, Ovalicin linoleate] |  | 37 ± 3 | < 20.6 | < 1.1 |  | 
CCCCCCCC/C=C\CCCCCCCC(=O)OC[C@@]1(O)CCC(=O)[C@@H](OC)[C@]1(O)[C@@]1(C)O[C@@H]1CC=C(C)C [Compound 3, Ovalicin oleate] |  | 45 ± 2 | > 50 | 4.8 ± 2.7 |  | 
CCCCCCCCCCCCCCCCCC(=O)OC[C@@]1(O)CCC(=O)[C@@H](OC)[C@]1(O)[C@@]1(C)O[C@@H]1CC=C(C)C [Compound 4] |  | 70 ± 1 | < 20.6 | 4.1 ± 2.1 |  | 
CO[C@@H]1[C@H](OC(=O)/C=C/C=C/C=C/C=C/C(=O)O)CC[C@]2(CO2)[C@H]1[C@@]1(C)O[C@@H]1CC=C(C)C [Fumagillin, reference compound] |  |  |  |  | 0.006 ± 0.002 | 
N=C(N)c1ccc(OCCCCCOc2ccc(C(=N)N)cc2)cc1 [Pentamidine, reference compound] |  |  |  |  |  | 0.011 ± 0.0017
